Legend:
Assay type in all cases: cell-based
cancer cells [1] = assay: β-gal assay of adenovirus infectivity
Excerpt: (§1) That is, ALA and Fe can enhance antitumor effect, because they can increase the infectivity of adenovirus to cancer cells and the amount of virus production within the cells.

cancer cells [2] = assay: PFU assay of adenovirus production
Excerpt: as §1

Ovarian cancer cells HEY = assay: Influence of Fe and ALA on the proliferation inhibitory effect of adenovirus AdE3-1A1.3B (FIG. 15-17)
Method: Ovarian cancer cells HEY were cultured in 12-well plate at a rate of 10,000 cells/well and FeSO4 was added at a concentration of 50 μg/ml, 5 μg/ml, 0.5 μg/ml or 0 μg/ml on the following day and the cytolysis type adenovirus AdE3-1A1.3B was added to all wells. The proliferation inhibitory effect of the adenovirus was evaluated by IC50 after five days.
(§2) Next, the ovarian cancer cell line HEY was cultured in a 12-well plate at a rate of 10,000 cells/well and 5-aminolevulinic acid (ALA) was added at a concentration of 50 μg/ml, 5 μg/ml, 0.5 μg/ml or 0 μg/ml on the following day and the cytolysis type adenovirus AdE3-1A1.3B was added to all wells. The proliferation inhibitory effect of the adenovirus was evaluated by IC50 after five days.
as §2, with “Furthermore,” for “Next,”, “FeSO4” for “5-aminolevulinic acid (ALA)”, “day. In addition,” for “day and”, “AdE3-1A1.3B and 50 μg/ml of 5-aminolevulinic acid (ALA) were added to each well. Only the adenovirus” for “AdE3-1A1.3B”, “a control.” for “all wells.”

Compound | infectivity of adenovirus (cancer cells [1]) | amount of adenovirus production (cancer cells [2]) | proliferation inhibitory effect to that of only adenovirus administration (Ovarian cancer cells HEY; 0.5 μg/ml of FeSO4, 50 μg/ml of ALA and AdE3-1A1.3B, after five days) | proliferation inhibitory effect to that of only adenovirus administration (Ovarian cancer cells HEY; 5 μg/ml of FeSO4, 50 μg/ml of ALA and AdE3-1A1.3B, after five days) | proliferation inhibitory effect to that of only adenovirus administration (Ovarian cancer cells HEY; 5 μg/ml of FeSO4 and AdE3-1A1.3B, IC50 (vp/cell) after five days) | proliferation inhibitory effect to that of only adenovirus administration (Ovarian cancer cells HEY; 50 μg/ml of FeSO4, 50 μg/ml of ALA and AdE3-1A1.3B, after five days) | proliferation inhibitory effect to that of only adenovirus administration (Ovarian cancer cells HEY; 50 μg/ml of FeSO4 and AdE3-1A1.3B, IC50 (vp/cell) after five days) | proliferation inhibitory effect to that of only adenovirus administration (Ovarian cancer cells HEY; 50 μg/ml of ALA and AdE3-1A1.3B, IC50 (vp/cell) after five days)
[Fe] [Fe] | increased infectivity of adenovirus | increased amount of adenovirus production | – | – | – | – | – | –
ferrous sulfate [FeSO4] | – | – | about 200 fold | about 700 fold | about 8 fold | about 1,000 fold | about 20 fold | –
NCC(=O)CCC(=O)O [ALA, 5-aminolevulinic acid, reference compound] | increased infectivity of adenovirus | increased amount of adenovirus production | – | – | – | – | – | about 100 fold

Source: patent publication US20070134202A1, “Cancer gene therapeutic drug” (priority 2003, published 2007)
